According to patent publication US20260306460A1, “COMPOSITION FOR REMOVING AND INHIBITING SENESCENT CELLS, AND USES THEREOF” (LIFECEUTIX CO., LTD., priority 2023, published 2026):

Legend:
Splnocyte = conditions: cited from earlier work
SAOS-2 = test: Suppression of doxorubicin-senescent SAOS-2 tumors in nude mice, Example 19; assay type: in vivo, mouse; conditions: after DOX 10 mg/kg ip; 21 days daily; LX-5701 360 mg/kg po, LX-2101 20 mg/kg ip, LX-2102 10 mg/kg ip; DOX repeated as control
Method: Seven-week-old male BALB/c nude mice (KRIBB Laboratory Animal Resource Center) were acclimated to the experimental environment for one week, after which they were randomly assigned to experimental and control groups. Evaluation was performed using the same method as in Example 2-1 of WO2023-085787 A1. Cultured human osteosarcoma cell lines, SAOS-2 (10^6 cells), were mixed in phosphate-buffered saline (PBS) and administered subcutaneously to anesthetized mice using 2% isoflurane (Sigma). When the tumors reached approximately […], doxorubicin (10 mg/kg) was mixed in a 1:1 solution of distilled water and PBS (pH 7.2) and administered intraperitoneally to induce tumor senescence. After 10 days, LX-5701 mixed in PBS at a concentration of 360 mg/kg was administered orally daily for 21 days, or LX-2101 mixed in PBS solution with 5% DMSO at a concentration of 20 mg/kg or LX-2102 mixed in PBS with 5% DMSO at a concentration of 10 mg/kg was administered intraperitoneally daily for 21 days, and then the tumor size was measured. The control group was repeatedly administered a solution mixed with doxorubicin, and then the tumor size was measured.

[1] = tested on: naturally aged C57BL6J mice; test: Geriatric depression and anxiety in aged mice, Example 21-8; assay type: in vivo, mouse; conditions: aged mice
Text: The amount of senescent-associated secretory factor (SASP) in serum and tissues collected from mice of Examples 21-5 and 21-6 was reduced by treatment with LX-5701, LX-2101, or LX-2102. It was confirmed that removing senescent cells, which increase with aging in mice, and effectively reducing the amount of senescent-associated secretory factor (SASP) can improve symptoms of geriatric depression and anxiety.

[2] = tested on: obesity-induced aged C57BL6J mice; test: Anxiety, depression, lethargy (open field test) in obesity-aged mice, Example 23-4, Table 44; assay type: in vivo, mouse; conditions: obesity-aged mice
Method: 15-week-old male C57BL6J mice (The Jackson Laboratory) were induced to obesity by a high-fat diet using the same method as in Example 9-1 WO2023-085787 A1. After acclimation to the experimental environment for one week, the mice were randomly assigned to experimental and control groups. […] LX-3002 was mixed in distilled water with 4% DMSO, 30% PEG300, and 5% Tween80 and administered orally at a concentration of 10 mg/kg daily for 21 days. LX-5701 was mixed in PBS and administered orally at a concentration of 360 mg/kg daily for 21 days. LX-6807 was mixed in saline and administered intraperitoneally at a concentration of 1 mg/kg daily for 21 days. The control group received only the solution in the same volume. After the end of drug administration, the methods described in each example below were performed.
It was determined that anxiety and depression caused by obesity are not causally related to increased body weight, but rather are caused by the accumulation of senescent cells. Accordingly, an activity assessment (open field test) was performed using the same method as in Example 7-7 of WO2023-085787 A1 to analyze lethargy caused by anxiety and depression caused by obesity in mice. The table below quantitatively represents activity, a criterion for assessing lethargy due to anxiety and depression, under conditions in which aging was induced by obesity and the test compound was not administered or was administered. The activity assessment after obesity-induced aging was calculated as 100% and compared with the activity assessment after test compound treatment.

senescent A549 cells = test: Viability of senescent A549 cancer cells (CellTiter-Glo), Example 12; assay type: cell-based, human; conditions: Homo sapiens, A549, 0 μM = 100, read-out: Survival
Method: (§3) Cells were treated with doxorubicin or control (DMSO) and cultured.
Cancer cells in which aging was induced by treatment with doxorubicin were treated with the test compound at designated concentrations and measured using the CellTiter-Glo Luminescent Cell Viability Assay (Promega).

[3] = tested on: proliferating foreskin cells; test: Survival of proliferating human cells treated with supernatant (secreted fluid) from death-induced cells, Example 13; assay type: cell-based; conditions: 3 days; for viability at 30 µM: Homo sapiens, 72 h
Method: (§1) After 3 days, cell viability was measured using CellTiter-Glo Luminescent Cell Viability Assay (Promega) or light microscopy.
After treating cells with the test compound at a high concentration that induces the death of most cells in both non-senescence-induced and senescence-induced cells, the cells were washed three times with PBS to remove the test compound, and replaced with fresh medium and cultured for an additional 3 hours at the time when the compound has entered into the cell but has not yet induced cell death (approximately 1 to 3 hours after compound treatment). During this additional culture, by checking with an optical microscope, etc., the medium supernatants containing secreted fluid from normally proliferating and senescent cells in which cell death was induced were obtained. The obtained medium supernatant was replaced with the medium of normally proliferating and senescent cells, respectively, and cell survival rate was measured after 3 days.

senescent human cells = test: Viability of doxorubicin-induced senescent human cells (CellTiter-Glo), Example 11; assay type: cell-based
Method: Cells in which senescence was induced by treatment with doxorubicin were treated with the test compound at designated concentrations and measured using the CellTiter-Glo Luminescent Cell Viability Assay (Promega).

[4] = tested on: non-senescent proliferating human cells; test: Effect on non-senescent (proliferating) human cells; assay type: cell-based; conditions: normally proliferating foreskin cells; 30 μM, 3 days
Text: Based on the results of Example 10 of WO2023-085787 A1, compounds that induce the death of senescent cells through a mechanism similar to LX-112, unlike existing senescent cell removers such as ABT-263, were screened based on HMGN1. […] The following test compounds were synthesized by and purchased from Medchemexpress, Selleckchem, Cayman, Medkoo, Sigma, Molport, Enzo, TCI, Santa Cruz, REONSIMI, Abcam, Alfa Aesar, APExBIO, BOCSCI, Merck, Thermo Fisher Scientific, R&D Systems, ChemFaces, Aobious, etc. […] In cells in which senescence was not induced by treatment with the control group (DMSO), the amount of HMGN1 above the effective value (sensitivity: 35 pg/ml), analysis limit, was not detected in both untreated and treated conditions with the test compound. On the other hand, in cells where senescence was induced by treatment with doxorubicin, the amount of HMGN1 was measured at 80 to 90 pg/ml. […]
as §1
Using the same method as Example 11, compounds that induce senescent cell death through a mechanism similar to that of LX-112 (ethaselen (1,2-[bis(1,2-benzisoselenazolone-3 (2H)-ketone)]ethane)) were screened based on HMGN1 and others. […] On the other hand, in cells senescent with doxorubicin, an amount of HMGN1 of […] was measured. […]

senescent foreskin cells = test: Survival of senescent human cells treated with supernatant (secreted fluid) from death-induced cells, Example 13; assay type: cell-based; conditions: senescent treated cells; for viability at 30 µM: Homo sapiens, 72 h
[5] = tested on: HMGN1 secreted from senescent A549 cells; test: HMGN1 secretion (ELISA) from senescent A549 cancer cells, Example 12; assay type: cell-based, human; conditions: senescent untreated = 100%; 30 μM; 90 μM for LX-305, 905, 1302, 1601, 1603, 2003, 2702, 2901, 3106; 270 μM for LX-1103, 2005, 2007;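 note: A549 cells made senescent by doxorubicin exposure, with DMSO-treated cells serving as the non-senescent control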
Method: as §3

[6] = tested on: bleomycin-induced pulmonary fibrosis mice; test: Bleomycin-induced pulmonary fibrosis mice, Example 31, Table 56; assay type: in vivo, mouse; conditions: untreated = 100%
How it was run: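 Mice with bleomycin-induced pulmonary fibrosis, untreated or given test compound, with vehicle-only controls. Lung tissue collected for RNA extraction and qRT-PCR analysis.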

[7] = tested on: carbon tetrachloride-induced liver fibrosis mice; test: Carbon tetrachloride-induced liver fibrosis mice, Example 31, Table 57; assay type: in vivo, mouse; conditions: CCl4-induced liver fibrosis mice, untreated = 100%
How it was run: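 Mice with induced hepatic fibrosis received either the test compound or, as controls, an equal volume of vehicle solution alone. Once dosing ended, liver tissue was harvested and total RNA was isolated. cDNA was synthesized from this RNA, and quantitative RT-PCR was run on it to measure hepatic mRNA levels of the fibrosis- and senescence-related genes.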

naturally aged mice [8] = test: p16, MMP3, IL6 mRNA in liver of naturally aged mice (qRT-PCR), Example 15; assay type: in vivo, mouse; conditions: untreated aged = 100%, 5 days
Method: (§2) In the same manner as in Example 7-1 of WO2023-085787 A1, naturally aged mice were administered LX-405 (5% DMSO in PBS solution, 10 mg/kg, intraperitoneal administration), LX-801 (PBS, 100 mg/kg, intraperitoneal administration), LX-1102 (0.5% CMC-Na solution, 100 mg/kg, oral administration), LX-1801 (PBS, 50 mg/kg, intraperitoneal administration), LX-2101 (0.5% CMC-Na solution, 10 mg/kg, intraperitoneal administration), and LX-3403 (mouse anti-PD-1 antibody (BioXcell), 100 μg, intraperitoneal administration) for 5 days under the following conditions. The control group was administered only the solution in the same volume. After drug administration was completed, the method described in each Example below was performed. The mouse was sacrificed in the same manner as Example 7-2 and 7-6 of WO2023-085787 A1. Total RNA was extracted from liver tissue, and qRT-PCR was performed and analyzed using synthesized cDNA. […] The mRNA amounts of p16, MMP3, and IL6 after natural aging were induced were calculated as 100% and compared them with the mRNA amounts of p16, MMP3, and IL6 after treatment with the test compound. Furthermore, an open field test was performed to analyze aging-related frailty in mice using the same method as Example 7-7 of WO2023-085787 A1. […] The amount of activity evaluated after inducing aging was calculated as 100% and compared it with the amount of activity evaluated after treatment with the test compound.

naturally aged mice [9] = test: Open field test in naturally aged mice, Example 15; assay type: in vivo, mouse; conditions: untreated aged = 100%; 5 days; doses as p16 mRNA
Method: as §2

naturally aged mice [10] = test: Anti-aging evaluation in naturally aged mice, Example 31, Table 55; assay type: in vivo, mouse;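 note: Vehicle-dosed control mice received solution alone at matching volume, values compare test-compound-treated aged mice against that control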

## CC(O)[C@@H]1NC(=O)COCCOCCNC(=O)[C@H](C(C)O)NC(=O)N[C@@H](C(C)O)C(=O)NNC1=O (stereo partly drawn) [Cyclic compound 1]
Splnocyte
  Splnocyte proliferation recovery: Splnocyte proliferation recovery 91%

## COc1cccc2c1C(=O)c1c(O)c3c(c(O)c1C2=O)C[C@@](O)(C(=O)CO)C[C@@H]3O[C@H]1C[C@H](N)[C@H](O)[C@H](C)O1 [DOX, doxorubicin]
SAOS-2
  Tumor Diameter: 16.1 (±0.9) mm

## CC(C)c1onc(C(=O)N2CCN(C(c3ccccc3)c3ccccc3)CC2)c1[N+](=O)[O-] [LX-401]
[1]
  amount of SASP, p16, SA-β-gal, lipofuscin: reduced
  symptoms of geriatric depression and anxiety: improved
[2]
  geriatric depression: similarly improving geriatric depression
Senescent A549 cells; 1.1 μM
  viability at 1.1 µM: 89.7%
Senescent A549 cells; 3.3 μM
  viability at […]: 68.6%
Senescent A549 cells; 10 μM
  viability at 10 µM: 42.1%
Senescent A549 cells; 30 μM
  viability at 30 µM: 16.8%
[3]; supernatant from death-induced proliferating cells
  viability at 30 µM: 88.1%
[3]; supernatant from death-induced senescent cells
  viability at 30 µM: 95.1%
[3]; supernatant from No Cells
  Survival: 97.9 (±7.2) %
Senescent human cells; Homo sapiens, 1.1 μM, 0 μM = 100, read-out: Survival
  viability at 1.1 µM: 20.4%
Senescent human cells; Homo sapiens, 3.3 μM, 0 μM = 100, read-out: Survival
  viability at […]: 12.4%
Senescent human cells; Homo sapiens, 10 μM, 0 μM = 100, read-out: Survival
  viability at 10 µM: 10.6%
Senescent human cells; Homo sapiens, 30 μM, 0 μM = 100, read-out: Survival
  viability at 30 µM: 7.8%
Senescent human cells; senescent foreskin cells, 30 μM, 3 days
  induced death of cells: induced the death of most cells
[4]
  induced death of cells: induced the death of most cells
Senescent foreskin cells; supernatant from death-induced proliferating cells, 3 days
  viability at 30 µM: 48.2%
Senescent foreskin cells; supernatant from death-induced senescent cells, 3 days
  viability at 30 µM: 42.2%
Senescent foreskin cells; supernatant from No Cells, 3 days
  Survival: 101.1 (±5.5) %
[5]
  HMGN1: 277%

## Fc1ccc(-n2cc(CCCCN3CCC4(CC3)OCc3ccccc34)c3ccccc32)cc1 [LX-1102, Siramesine]
[6]; lung
  Lung p16 mRNA: 59 (±3.9) %
[6]
  Col1a1 mRNA: 68 (±4.1) %
[7]; liver
  Liver p16 mRNA: 76 (±2.8) %
[7]
  Col1a1 mRNA: 64 (±4.7) %
Naturally aged mice [8]; LX-405 10 mg/kg ip, LX-801 100 mg/kg ip, LX-1102 100 mg/kg po, LX-1801 50 mg/kg ip, LX-2101 10 mg/kg ip, LX-3403 100 μg ip
  p16 mRNA: 75.2 (±5.5) %
Naturally aged mice [8]; doses as p16 mRNA
  IL6 mRNA: 84.5 (±8.9) %
  MMP3 mRNA: 89.7 (±12.5) %
Naturally aged mice [9]
  Open Field Test Time in Center: 163 (±7.9) %
Senescent foreskin cells; Table 8, supernatant from dying senescent cells treated at 30, 90 or 270 μM (as Example 11)
  Survival: 52.9
[5]
  HMGN1: 324%
Naturally aged mice [10]; femur, untreated = 100%
  Femur Ctsk mRNA: 62%
Naturally aged mice [10]; heart, untreated = 1.0
  Heart Sur2a mRNA: 1.8 fold
Naturally aged mice [10]; joint, untreated = 1.0
  Joint Col2a1 mRNA: 1.7 fold
Naturally aged mice [10]; kidney, untreated = 100%
  Kidney Agtr1a mRNA: 80%
Naturally aged mice [10]; liver, untreated = 100%
  Liver IL6 mRNA: 74%
  Liver MMP3 mRNA: 71%
  Liver p16 mRNA: 58%
Naturally aged mice [10]; open field test, untreated = 100%
  Open Field Test Time in Center: 148%
Naturally aged mice [10]; skin, untreated = 1.0
  Skin Col1a1 mRNA: 2.5 Fold
  Skin SDF1 mRNA: 2.3 fold
Naturally aged mice [10]; untreated 0.64 g
  Muscle Mass: 0.65 g
Naturally aged mice [10]; untreated 0.82 g
  Fat Mass: 0.95 g
Naturally aged mice [10]; untreated 83%
  Cataract incidence: 77%
